From EP0722733A1, “BLOOD VESSEL THICKENING INHIBITOR AND SMOOTH MUSCLE FIBER MIGRATION INHIBITOR EACH CONTAINING 7-THIAPROSTAGLANDIN E 1? COMPOUND AS ACTIVE INGREDIENT” (TEIJIN LIMITED, priority 1993, dated 1995)

What was measured:
[1] = tested on: vascular smooth muscle cells derived from normal human arteries; experiment: Suppression of PDGF-mediated migration of human vascular smooth muscle cells in vitro (Transwell chamber); type: cell-based; conditions: human PDGF 10 ng/ml, 6 hours; for No. of wandering cells: average cell count of five fields ± standard deviation, control 86.4±20.1
Method: To investigate the activity of the tested compound to inhibit cell migration, the migrated cells mediated by human platelet derived growth factor (PDGF) were measured in the following way using the vascular smooth muscle cells derived from normal human arteries and according to the method of MaCarthy et al. (J. Cell. Biol. 97, 772-777 (1983)). That is, a Transwell Chamber (Costar Co., registered trademark) was used to measure the inhibitory action. The chamber was divided into two layers, upper and lower, by a 8 µm pore size membrane filter (PVP - free polycarbonate filter, Nucleopore Co., registered trademark). The filter was precoated on its lower surface with 5 µg of rat tail collagen type 1 (Becton Dickinson Co.) To the upper chamber (100 µl) was added a 1.5 × 10^6/ml suspension of cells (DMEM (made by Flow Laboratories Co.) containing 0.1% BSA (made by Nakalai Tesque Co.) In the lower chamber (600 µl) was placed the same solution diluted by human PDGF (made by Becton Dickinson) to give a final concentration of 10 ng/ml. At this time, the tested compound was added in different concentrations to both the upper and lower chambers. The chambers were incubated at 37°C under 5% CO2 for 6 hours, then the filter was removed, fixed in 99.7% methanol, then stained with hematoxylin and eosin. The cells on the upper surface of the filter were removed by wiping with a cotton swab and the cells that had migrated to the lower surface of the filter were counted under a high output microscope (×200, ×400). Usually, five fields were counted per filter. The migrated cells were shown by the average cell count of five fields ± standard deviation. The significant difference was examined by the Student's two-tailed t test.

[2] = tested on: Rat Carotid Artery Endothelium; experiment: Suppression of intima thickening after balloon catheter trauma to rat carotid artery endothelium; type: in vivo, SD rats; conditions: for Intima: from 2 days before to 14 days after surgery, area of thickened intima; for Intima/Media / Media: 14 days after surgery; for Media: area of media; for Suppression rate: intima thickening suppression rate = (1-T/C) x 100 of Intima/Media versus solvent control
Method: The test was performed in the following manner in accordance with the method of Krauz et al. (Lab. Invest., vol. 49, p. 208, 1983). Male SD rats having a body weight of 400 to 500g was used. The neck of each rat was opened under anesthesia by sodium pentobarbitol, then a balloon catheter (Fogarty, 2F) was inserted from the right external carotid artery until the starting portion of the common carotid artery. The balloon was expanded by physiological saline to such an extent causing a light resistance, then the catheter was pulled out in that state up to the carotid artery to give trauma to the intima. This procedure was repeated three times, then the catheter was withdrawn and the external carotid artery was sewn up. After 14 days, the chest was opened under anesthesia by pentobarbitol, refluxing was performed from the left ventricle by physiological saline containing heparin (20 units/ml), then the left common carotid artery was excised and immobilized by neutral formalin solution. The immobilized carotid artery was dyed by Olsein dye, then the areas of the media and thickened portion of the intima were measured by an image resolution device (LUZEX2D).
The test drug began to be administered subcutaneously at a rate of 1.0 µg/rat/hr or 3.2 µg/rat/hr using a miniosmotic pump buried in the back of the rat from two days before the surgery and was continued until 14 days after the surgery. The activity of the drug in suppressing intima thickening was found from the following formula.

[3] = tested on: rat vascular smooth muscle cells (SMC); experiment: Suppression of PDGF-induced wandering of rat vascular smooth muscle cells in vitro (blind well chamber); type: cell-based, rats; conditions: PDGF 20 ng/ml, 4 hours; for No. of wandering cells: average ± standard error, n=3, control 176±19; for Suppression rate: cell wandering suppression rate = 100 - (T/C x 100)
Method: Media tissue of the chest arteries of the rats was sampled in accordance with the method of Ross (J. Cell Biol. 50: 172-186, 1971), then was incubated by a Delvecco Modified Eagle Medium (DMEM) containing 10% fetal calf serum in a CO2 incubator (95% air-5% CO2, 37°C, humidity 100%). The fourth generation cultured cells were used for the experiment. The rat vascular smooth muscle cells (SMC) were freed by a 0.008% trypsin-0.01% EDTA solution and made to wander in DMEM containing 0.1% bovine serum albumin. The wandering of the cells was observed using a 24-well blind well chamber made by Neuro Probe. In the lower chambers were placed 100 µl amounts of a mixture of the cell wandering factor (platelet derived growth factor PDGF 20 ng/ml) and the drug. These were covered by a Nuclepore filter (pore size, 8 µm) made by Corning. 100 µl amounts of the incubation solution containing the drug and in which 5 × 10^5 cells/ml of SMC were made to wander were placed in the top chambers and allowed to stand in a CO2 incubator for 4 hours. After the end of the incubation, the smooth muscle cells were immobilized for each filter, then were Propidum dyed. The cells in the lower chambers were counted in four fields under a laser microscope in a 0.48 mm^2 area field. The average was used as the number of wandering cells.
The rate of suppression of cell wandering (%) was found from the following formula. Cell wandering suppression rate (%) = 100 - (T/C × 100) [formula] wherein, C and T respectively show the number of wandering cells at the time of addition of cell wandering factor minus the number of wandering cells at the time of no addition of cell wandering factor and the number of wandering cells at the time of addition of the drug.

[4] = tested on: SD rats; experiment: Acute toxicity test, oral; type: in vivo; conditions: male SD rats, 6 weeks old, deaths/animals
Method: (§1) The above test compound was tested for acute toxicity using SD rats (6 weeks old, SPE, male) (p.o.), whereupon the results shown in the following Table 4 were obtained.

[5] = Acute toxicity test, oral; type: in vivo; conditions: rat, in vivo, po, male SD rats; judged from Table 4
Method: as §1

[6] = 1.0 µg/rat/hr s.c. by miniosmotic pump

CCCCC[C@H](O)/C=C/[C@H]1[C@H](O)CC(=O)[C@@H]1CCCCCCC(=O)O [Prostaglandin E1, reference compound]
No. of wandering cells ([1]; 10^-7 M): 82.6±17.8
No. of wandering cells ([1]; 10^-8 M): 82.4±6.9
Suppression rate ([1]; 10^-9 M): No significance
No. of wandering cells ([1]; 10^-9 M): 91.0±9.8

CCCC[C@@H](C)C[C@H](O)/C=C/[C@H]1[C@H](O)CC(=O)[C@@H]1SCCCCCC(=O)OC [Test Compound, (17R)-17,20-dimethyl-7-thiaprostaglandin E1 methyl ester]
Suppression rate ([1]; 10^-7 M): 78.0%
No. of wandering cells ([1]; 10^-7 M): 19.0±11.8
Suppression rate ([1]; 10^-8 M): 41.0%
No. of wandering cells ([1]; 10^-8 M): 51.0±9.5
Suppression rate ([1]; 10^-9 M): 22.2%
No. of wandering cells ([1]; 10^-9 M): 67.2±15.7
Intima ([2]; 1.0 µg/rat/hr s.c. by miniosmotic pump, average, standard error in the row below): 0.118 mm²
Intima/Media [2, 6]: 0.842
Media [2, 6]: 0.14 mm²
Suppression rate ([2]; 1.0 µg/rat/hr s.c.): 13.1%
Intima ([2]; 3.2 µg/rat/hr s.c. by miniosmotic pump, P < 0.01 vs control): 0.093 mm²
Intima/Media ([2]; 3.2 µg/rat/hr s.c. by miniosmotic pump, P < 0.05 vs control): 0.630
Media ([2]; 3.2 µg/rat/hr s.c. by miniosmotic pump): 0.158 mm²
Suppression rate ([2]; 3.2 µg/rat/hr s.c.): 31.4%
No. of wandering cells ([3]; 10^-8 M): 107±15##(T) cells/0.48 mm^2
Suppression rate ([3]; 10^-8 M): 39.2%
No. of wandering cells ([3]; 10^-9 M): 117±19##(T) cells/0.48 mm^2
Suppression rate ([3]; 10^-9 M): 33.5%
No. of deaths ([4]; 20 mg/kg p.o.): 0/2
No. of deaths ([4]; 100 mg/kg p.o.): 1/2
No. of deaths ([4]; 200 mg/kg p.o.): 2/2
LD50 [5]: ~100 mg/kg
